“And” between values parts separate entries of the source, which are not always exact repeats. Identical values can stand only once.
How the values were obtained:
adult Aedes albopicus = experiment: cage-in-arm test, repellency and CPT; format: in vivo, Aedes albopictus
Description: (§1) For determining the repellency of prepared samples against adults of Aedes aegypti and Aedes albopicus, a cage-in-arm test was carried out as a method for exposure to skin. Namely, on a back of the hand of a rubber glove, a hole with diameter of 5 cm was created, and, onto an exposed back of the testees, various samples prepared by dissolution in 100 μl of ethanol were applied, and then the skin test was carried out. The testees were healthy males between the ages of 21 and 40. The control group was treated with 100 μl of ethanol only. Female adults (5 to 8 day old) of Aedes aegypti or Aedes albopicus (250 to 300 mosquitoes) were added to a cage for growing adult mosquitoes (25×25×25 cm^3), and adapted to the indoor conditions for 12 to 24 hours before starting the test. When the upper arm of the control group is exposed for 1 minute and at least 6 mosquitoes sit on the upper arm or show a bloodsucking behavior, it was determined as sufficient biting pressure, and then the repellency test was carried out. With an interval of 30 minutes, by exposing the upper arm, which has been treated with the above composition, for 3 minutes, and, when the adult mosquito sits on the arm for 2 seconds or longer or at least two mosquitoes showing the behavior of mouth injection to skin or direct bloodsucking are found from consecutive tests, the test was stopped. The time period between the time point with initial treatment of a material and the time point at which 2 or more mosquitoes continuously sit on the treatment area or show the bloodsucking behavior was defined as complete protection time (CPT). Furthermore, for obtaining the repellency with regard to concentration, exposure was made for a constant time period regardless of the above and the repellency was calculated by using the following formula. Accordingly, the effect was compared among each test samples. All tests were carried out in triplicate. Repellency %=(Number of insects showing bloodsucking behavior in non-treatment group−Number of insects showing bloodsucking behavior in treatment group)/Number of insects showing bloodsucking behavior in non-treatment group)×100 <Tick Repellency>
For reference, comparison of the mosquito repellency was made by using clove oil as a natural positive control group and DEET as a synthetic positive control group.
To determine the repellency of plant essential oil alone against adult Aedes albopicus and nymphs of Haemaphysalis longicornis, the cage-in-arm test and finger-tip method were carried out, in the same manner as Examples 1-2 and 1-3, with each of 16 kinds of plant essential oil of Table 4.

[1] = tested on: nymphs of Haemaphysalis longicornis; experiment: finger-tip method, tick repellency; format: in vivo
Description: By having the outdoor group of Haemaphysalis longicornis collected from the region around Bongdam-Myon, Hwasung-Shi, Kunggi-Do, South Korea as a subject, the repellency against ticks was determined by employing a finger-tip method. In 50 μl of ethanol, each sample was dissolved in an amount of 2 mg, and then treated on the second nodule of a third finger. […] All tests were carried out in triplicate. Repellency %=(Number of insects showing bloodsucking behavior in non-treatment group−Number of insects showing bloodsucking behavior in treatment group)/Number of insects showing bloodsucking behavior in non-treatment group)×100 […]

adult Aedes aegypti = experiment: cage-in-arm test, complete protection time (CPT); format: in vivo; conditions: 4 mg, adult Aedes aegypti
Description: as §1, with “With an interval of 30 minutes, by exposing the upper arm, which has been treated with the above composition, for 3 minutes, and, when the adult mosquito sits on the arm for 2 seconds or longer or at least two mosquitoes showing the behavior of mouth injection to skin or direct bloodsucking are found from consecutive tests, the test was stopped.” left out

In the case of COc1ccc(C=O)cc1OC [3,4-Dimethoxybenzaldehyde, 3,4-dimethoxybenzaldehyde], the “Repellency (mean ± SE, %)” value (adult Aedes albopicus; 0.03 mg/cm^2, 10 minutes) is reported as 100 ± 0%, the “Repellency (mean ± SE, %)” value (adult Aedes albopicus; 0.03 mg/cm^2, 30 minutes) is reported as 75 ± 7.1% and the “Repellency (mean ± SE, %)” value (adult Aedes albopicus; 0.03 mg/cm^2, 60 minutes) is reported as 54 ± 4.3%. For the same compound, the “Repellency (mean ± SE, %)” value (adult Aedes albopicus; 0.10 mg/cm^2, 10 minutes) was 100 ± 0%, the “Repellency (mean ± SE, %)” value (adult Aedes albopicus; 0.10 mg/cm^2, 30 minutes) was 93 ± 4.3% and the “Repellency (mean ± SE, %)” value (adult Aedes albopicus; 0.10 mg/cm^2, 60 minutes) was 90 ± 4.1%. The “Repellency (mean ± SE, %)” value (adult Aedes albopicus; 0.10 mg/cm^2, 90 minutes) was 83 ± 8.8%, the “Repellency (mean ± SE, %)” value (adult Aedes albopicus; 0.10 mg/cm^2, 120 minutes) was 58 ± 5.5% and the “Repellency (mean ± SE, %)” value (adult Aedes albopicus; 0.20 mg/cm^2, 10 minutes) was 100 ± 0%. For the same compound, the “Repellency (mean ± SE, %)” value (adult Aedes albopicus; 0.20 mg/cm^2, 30 minutes) was 100 ± 0%, the “Repellency (mean ± SE, %)” value (adult Aedes albopicus; 0.20 mg/cm^2, 60 minutes) was 99 ± 2.3% and the “Repellency (mean ± SE, %)” value (adult Aedes albopicus; 0.20 mg/cm^2, 90 minutes) was 94 ± 4.6%. The “Repellency (mean ± SE, %)” value (adult Aedes albopicus; 0.20 mg/cm^2, 120 minutes) was 91 ± 1.7%, the “Repellency (mean ± SE, %)” value (adult Aedes albopicus; 0.20 mg/cm^2, 150 minutes) was 83 ± 2.6% and the “Repellency (mean ± SE, %)” value (adult Aedes albopicus; 0.20 mg/cm^2, 180 minutes) was 65 ± 6.0%. The “Repellency (mean ± SE, %)” value (adult Aedes albopicus; 0.25 mg/cm^2, 10 minutes) was 100 ± 0%, the “Repellency (mean ± SE, %)” value (adult Aedes albopicus; 0.25 mg/cm^2, 30 minutes) was 100 ± 0% and the “Repellency (mean ± SE, %)” value (adult Aedes albopicus; 0.25 mg/cm^2, 60 minutes) was 100 ± 0%. For the same compound, the “Repellency (mean ± SE, %)” value (adult Aedes albopicus; 0.25 mg/cm^2, 90 minutes) was 100 ± 0%, the “Repellency (mean ± SE, %)” value (adult Aedes albopicus; 0.25 mg/cm^2, 120 minutes) was 100 ± 0% and the “Repellency (mean ± SE, %)” value (adult Aedes albopicus; 0.25 mg/cm^2, 150 minutes) was 95 ± 3.2%. The “Repellency (mean ± SE, %)” value (adult Aedes albopicus; 0.25 mg/cm^2, 180 minutes) was 58 ± 4.4%, the CPT (adult Aedes albopicus; 4 mg, adult Aedes albopicus) was 50 min and the “Repellency (mean ± SE, %)” value ([1]; 0.01 mg/cm^2, 15 min.) was 100 ± 0%. For the same compound, the “Repellency (mean ± SE, %)” value ([1]; 0.01 mg/cm^2, 30 min.) was 100 ± 0%, the “Repellency (mean ± SE, %)” value ([1]; 0.01 mg/cm^2, 60 min.) was 98 ± 2.5% and the “Repellency (mean ± SE, %)” value ([1]; 0.01 mg/cm^2, 90 min.) was 98 ± 2.5%. For the same compound, the “Repellency (mean ± SE, %)” value ([1]; 0.01 mg/cm^2, 120 min.) was 90 ± 5.8%, the “Repellency (mean ± SE, %)” value ([1]; 0.01 mg/cm^2, 150 min.) was 95 ± 2.9% and the “Repellency (mean ± SE, %)” value ([1]; 0.01 mg/cm^2, 180 min.) was 95 ± 2.9%. The “Repellency (mean ± SE, %)” value ([1]; 0.01 mg/cm^2, 210 min.) was 73 ± 10.3%, the “Repellency (mean ± SE, %)” value ([1]; 0.01 mg/cm^2, 240 min.) was 65% and 65 ± 2.9% and the “Repellency (mean ± SE, %)” value ([1]; 0.01 mg/cm^2, 270 min.) was 43 ± 4.8%. The “Repellency (mean ± SE, %)” value ([1]; 0.02 mg/cm^2, 15 min.) was 100 ± 0%, the “Repellency (mean ± SE, %)” value ([1]; 0.02 mg/cm^2, 30 min.) was 100 ± 0% and the “Repellency (mean ± SE, %)” value ([1]; 0.02 mg/cm^2, 60 min.) was 100 ± 0%. The “Repellency (mean ± SE, %)” value ([1]; 0.02 mg/cm^2, 90 min.) was 98 ± 2.5%, the “Repellency (mean ± SE, %)” value ([1]; 0.02 mg/cm^2, 120 min.) was 98 ± 2.5% and the “Repellency (mean ± SE, %)” value ([1]; 0.02 mg/cm^2, 150 min.) was 100 ± 0%. The “Repellency (mean ± SE, %)” value ([1]; 0.02 mg/cm^2, 180 min.) was 98 ± 2.5%, the “Repellency (mean ± SE, %)” value ([1]; 0.02 mg/cm^2, 210 min.) was 95 ± 5.0% and the “Repellency (mean ± SE, %)” value ([1]; 0.02 mg/cm^2, 240 min.) was 85 ± 2.9%. The “Repellency (mean ± SE, %)” value ([1]; 0.02 mg/cm^2, 270 min.) was 63 ± 4.8%, the “Repellency (mean ± SE, %)” value ([1]; 0.02 mg/cm^2, 300 min.) was 48 ± 2.5% and the repellency ([1]; 0.02 mg/cm^2 or higher, 4 hours after the treatment) was no less than 78%. The “Repellency (mean ± SE, %)” value ([1]; 0.05 mg/cm^2, 15 min.) was 100 ± 0%, the “Repellency (mean ± SE, %)” value ([1]; 0.05 mg/cm^2, 30 min.) was 100 ± 0% and the “Repellency (mean ± SE, %)” value ([1]; 0.05 mg/cm^2, 60 min.) was 100 ± 0%. For the same compound, the “Repellency (mean ± SE, %)” value ([1]; 0.05 mg/cm^2, 90 min.) was 98 ± 2.5%, the “Repellency (mean ± SE, %)” value ([1]; 0.05 mg/cm^2, 120 min.) was 98 ± 2.5% and the “Repellency (mean ± SE, %)” value ([1]; 0.05 mg/cm^2, 150 min.) was 85 ± 2.9%. For the same compound, the “Repellency (mean ± SE, %)” value ([1]; 0.05 mg/cm^2, 180 min.) was 83 ± 6.3%, the “Repellency (mean ± SE, %)” value ([1]; 0.05 mg/cm^2, 210 min.) was 85 ± 6.5% and the “Repellency (mean ± SE, %)” value ([1]; 0.05 mg/cm^2, 240 min.) was 78 ± 4.8%. For the same compound, the “Repellency (mean ± SE, %)” value ([1]; 0.05 mg/cm^2, 270 min.) was 70 ± 4.1%, the “Repellency (mean ± SE, %)” value ([1]; 0.05 mg/cm^2, 300 min.) was 50 ± 4.1% and the “Repellency (mean ± SE, %)” value ([1]; 0.09 mg/cm^2, 15 min.) was 100 ± 0%. For the same compound, the “Repellency (mean ± SE, %)” value ([1]; 0.09 mg/cm^2, 30 min.) was 100 ± 0%, the “Repellency (mean ± SE, %)” value ([1]; 0.09 mg/cm^2, 60 min.) was 100 ± 0% and the “Repellency (mean ± SE, %)” value ([1]; 0.09 mg/cm^2, 90 min.) was 98 ± 2.5%. For the same compound, the “Repellency (mean ± SE, %)” value ([1]; 0.09 mg/cm^2, 120 min.) was 100 ± 0%, the “Repellency (mean ± SE, %)” value ([1]; 0.09 mg/cm^2, 150 min.) was 100 ± 0% and the “Repellency (mean ± SE, %)” value ([1]; 0.09 mg/cm^2, 180 min.) was 100 ± 0%. The “Repellency (mean ± SE, %)” value ([1]; 0.09 mg/cm^2, 210 min.) was 98 ± 2.5%, the “Repellency (mean ± SE, %)” value ([1]; 0.09 mg/cm^2, 240 min.) was 83 ± 2.5% and the “Repellency (mean ± SE, %)” value ([1]; 0.09 mg/cm^2, 270 min.) was 73 ± 6.3%. The “Repellency (mean ± SE, %)” value ([1]; 0.09 mg/cm^2, 300 min.) was 65 ± 2.9%, the CPT (adult Aedes aegypti) was 70 min and the CPT (adult Aedes aegypti; listed as 3,4-demethoxybenzaldehyde) was 70 min.

Source: patent publication US10959428B2, “Hematophagous arthropod repellent composition” (WOOJUNG BIO INC., priority 2017, dated 2021)
